Reference: patent publication US7235569B2, “Piperidinyl indole and tetrohydropyridinyl indole derivatives and method of their use” (Wyeth, priority 2003, dated 2007)
Where two headings read alike, the source gives them in different places.

Tests used:
human 5-HT1A receptors = biological target: T1, human 5-HT1A receptors (Homo sapiens, UniProt P08908); assay: [3H] 8-OH-DPAT displacement from 5-HT1A receptor (CHO cells stably transfected); format: binding; conditions: for inhibition at 1 µM: read-out: 5-HT1A % inhibition at 1 μM, cells marked * in the 5-HT1A column
T1 construct: expressed in transfected cells
T1 sequence (P08908 1-422): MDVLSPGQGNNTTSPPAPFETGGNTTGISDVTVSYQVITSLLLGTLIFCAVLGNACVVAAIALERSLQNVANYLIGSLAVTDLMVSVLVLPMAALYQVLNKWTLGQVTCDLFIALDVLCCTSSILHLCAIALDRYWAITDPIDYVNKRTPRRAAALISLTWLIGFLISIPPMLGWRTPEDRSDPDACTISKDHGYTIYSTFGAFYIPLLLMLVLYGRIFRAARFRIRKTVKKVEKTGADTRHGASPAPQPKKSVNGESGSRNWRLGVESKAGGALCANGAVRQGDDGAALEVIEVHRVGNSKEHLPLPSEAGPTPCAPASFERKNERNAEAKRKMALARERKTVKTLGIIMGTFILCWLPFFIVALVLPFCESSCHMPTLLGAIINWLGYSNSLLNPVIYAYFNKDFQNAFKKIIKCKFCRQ

5-HT transporter = biological target: T2, 5-HT transporter (Rattus norvegicus, UniProt P31652); assay: Rat Brain 3H-Paroxetine Binding Assay (RB 5HT Transporter)
T2 construct: frontal cortical membranes prepared from male S.D. rats; from tissue; host or cells: frontal cortical membranes of male Sprague-Dawley rats
T2 sequence (P31652 whole entry): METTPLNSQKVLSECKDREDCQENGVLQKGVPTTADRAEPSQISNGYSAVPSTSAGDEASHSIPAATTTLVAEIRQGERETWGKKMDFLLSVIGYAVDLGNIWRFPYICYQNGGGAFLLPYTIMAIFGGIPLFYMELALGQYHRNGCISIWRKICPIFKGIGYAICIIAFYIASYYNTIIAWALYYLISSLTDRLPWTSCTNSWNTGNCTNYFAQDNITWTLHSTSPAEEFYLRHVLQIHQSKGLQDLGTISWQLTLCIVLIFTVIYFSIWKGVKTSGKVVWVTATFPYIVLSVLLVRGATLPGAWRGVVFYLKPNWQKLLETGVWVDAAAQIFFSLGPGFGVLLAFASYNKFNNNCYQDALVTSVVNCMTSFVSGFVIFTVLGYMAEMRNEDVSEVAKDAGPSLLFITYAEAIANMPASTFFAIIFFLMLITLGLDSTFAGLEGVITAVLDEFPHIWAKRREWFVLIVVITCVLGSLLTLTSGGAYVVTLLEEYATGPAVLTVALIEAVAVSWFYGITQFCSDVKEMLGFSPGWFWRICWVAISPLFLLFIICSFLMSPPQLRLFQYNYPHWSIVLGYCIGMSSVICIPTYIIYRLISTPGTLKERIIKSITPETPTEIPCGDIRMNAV
Description: Rat Brain ^3H-Paroxetine Binding Assay (RB 5HT Transporter)
This assay was used to determine a compound's affinity of the 5-HT transporter. […] Briefly, frontal cortical membranes prepared from male S.D. rats were incubated with ^3H-parxetine (0.1 nM) for 60 min. at 25° C. All tubes also contained either vehicle, test compound (one to eight concentrations), or a saturating concentration of fluoxetine (10 μM) to define […]. All reactions are terminated by the addition of ice cold Tris buffer followed by rapid filtration using a Tom Tech filtration device to separate bound from free ^3H-paroxetine.

Human 5-HT Transporter = Human 5-HT Transporter (Homo sapiens, UniProt P31645); assay: cell-based
Chain of Human 5-HT Transporter (P31645 whole entry): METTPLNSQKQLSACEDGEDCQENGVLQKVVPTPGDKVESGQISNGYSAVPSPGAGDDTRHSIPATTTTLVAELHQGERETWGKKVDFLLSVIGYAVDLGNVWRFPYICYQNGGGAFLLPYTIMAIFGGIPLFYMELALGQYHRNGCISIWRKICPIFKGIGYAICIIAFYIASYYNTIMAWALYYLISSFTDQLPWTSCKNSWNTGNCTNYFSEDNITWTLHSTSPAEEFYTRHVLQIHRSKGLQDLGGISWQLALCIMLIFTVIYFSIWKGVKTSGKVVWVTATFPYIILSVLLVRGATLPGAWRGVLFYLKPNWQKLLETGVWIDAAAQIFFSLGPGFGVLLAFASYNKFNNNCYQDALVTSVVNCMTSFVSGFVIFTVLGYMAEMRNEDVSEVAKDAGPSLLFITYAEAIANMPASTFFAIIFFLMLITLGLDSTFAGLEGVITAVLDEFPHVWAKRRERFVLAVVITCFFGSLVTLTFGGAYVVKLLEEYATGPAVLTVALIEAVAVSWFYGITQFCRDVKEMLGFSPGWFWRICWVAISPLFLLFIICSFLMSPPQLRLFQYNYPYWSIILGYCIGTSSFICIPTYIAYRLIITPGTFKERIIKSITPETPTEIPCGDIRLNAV
Description: On the day of assay, vehicle, excess of fluoxetine, or test compound is added to various wells on the plate. All wells then receive ^3H-5-HT and are incubated at 37° C. for 5 min. The wells are then washed with ice cold 50 mM Tris HCl (pH 7.4) buffer and aspirated to remove free ^3H-5-HT. 25 μl of 0.25 M NaOH is then added to each well to lyse the cells and 75 μl scintillation cocktail (Microscint™ 20) added prior to quantitation on a Packard TopCount machine. Tubes with vehicle represent total possible uptake, radioactivity counted in tubes with fluoxetine represent nonspecific binding/uptake and is subtracted from the total possible uptake to give total possible specific uptake. […] Specific uptake is then expressed as a % of control values and is analyzed using nonlinear regression analysis (Prizm) to determine IC50 values.

[1] = rat frontal cortical membranes, 3H-paroxetine 0.1 nM, read-out: RB-5HT Transporter Ki

| Structure (SMILES) | Ki (human 5-HT1A receptors) | Ki (5-HT transporter) | Ki (Human 5-HT Transporter) | melting point | Ki (human 5-HT1A receptors; [3H] 8-OH-DPAT displacement, CHO cells with human 5-HT1A, read-out: 5-HT1A Ki) | Ki (5-HT transporter; [1]) | inhibition at 1 µM (human 5-HT1A receptors) |
| --- | --- | --- | --- | --- | --- | --- | --- |
| Cn1cc(C2=CCN(CCc3coc4ccccc34)CC2)c2ccccc21 [Compound 2, 3-{1-[2-(1-benzofuran-3-yl)ethyl]-1,2,3,6-tetrahydro-4-pyridinyl}-1-methyl-1H-indole] | 0.0183 µM | 0.006 µM |  |  |  |  |  |
| COc1ccc2c(CCN3CC=C(c4c[nH]c5cc(C#N)ccc45)CC3)coc2c1 [Compound 13, 3-{1-[2-(6-methoxy-1-benzofuran-3-yl)ethyl]-1,2,3,6-tetrahydro-4-pyridinyl}-6-cyano-1H-indole] | 0.0127 µM | 0.00336 µM | 0.0341 µM | 181 °C |  |  |  |
| C1=C(c2c[nH]c3ccccc23)CCN(CCc2csc3ccccc23)C1 [Compound 28, 3-{1-[2-(1-benzothiophene-3-yl)ethyl]-1,2,3,6-tetrahydro-4-pyridinyl}-1H-indole] | 0.0679 µM | 0.00625 µM | 0.0111 µM | 195 to 198 °C |  |  |  |
| C=CCn1cc(C2=CCN(CCc3csc4ccccc34)CC2)c2ccccc21 [Compound 29, 3-{1-[2-(1-benzothiophene-3-yl)ethyl]-1,2,3,6-tetrahydro-4-pyridinyl}-1-(2-propenyl)-1H-indole] |  |  | 1.12 µM |  | 0.243 µM | 0.104 µM |  |
| Cn1cc(C2=CCN(CCc3csc4ccccc34)CC2)c2ccccc21 [Compound 30, 3-{1-[2-(1-benzothiophene-3-yl)ethyl]-1,2,3,6-tetrahydro-4-pyridinyl}-1-methyl-1H-indole] | 0.0531 µM | 0.013 µM | 0.421 µM |  |  |  |  |
| Clc1ccc2scc(CCN3CC=C(c4c[nH]c5ccccc45)CC3)c2c1 [Compound 31, 3-{1-[2-(5-chloro-1-benzothiophene-3-yl)ethyl]-1,2,3,6-tetrahydro-4-pyridinyl}-1H-indole] |  |  | 2.9 µM |  |  | 0.172 µM | 29% |
| C=CCn1cc(C2=CCN(CCc3csc4ccc(Cl)cc34)CC2)c2ccccc21 [Compound 32, 3-{1-[2-(5-chloro-1-benzothiophene-3-yl)ethyl]-1,2,3,6-tetrahydro-4-pyridinyl}-1-(2-propenyl)-1H-indole] |  |  |  |  |  | 0.132 µM | 34% |
| Cn1cc(C2=CCN(CCc3csc4ccc(Cl)cc34)CC2)c2ccccc21 [Compound 33, 3-{1-[2-(5-chloro-1-benzothiophene-3-yl)ethyl]-1,2,3,6-tetrahydro-4-pyridinyl}-1-methyl-1H-indole] |  | 0.039 µM |  |  |  |  | 45% |
| c1ccc2c(c1)ccc1c(CCN3CCC(c4c[nH]c5ccccc45)CC3)coc12 [Compound 34, 3-{1-(2-Naphtho[1,2-b]furan-3-yl-ethyl)-piperidin-4-yl]-1H-indole] |  |  | 0.276 µM |  |  | 0.062 µM | 48% |
| CC(CN1CC=C(c2c[nH]c3ccccc23)CC1)c1coc2ccccc12 (centres unmarked) [Compound 35, 3-{1-[2-(1-benzofuran-3-yl)propyl]-1,2,3,6-tetrahydro-4-pyridinyl}-1H-indole] |  | 0.016 µM | 0.13 µM |  |  |  | 28% |
| CC(CN1CC=C(c2c[nH]c3cc(F)ccc23)CC1)c1coc2ccccc12 (centres unmarked) [Compound 36, 3-{1-[2-(1-benzofuran-3-yl)propyl]-1,2,3,6-tetrahydro-4-pyridinyl}-6-fluoro-1H-indole] |  | 0.00443 µM | 0.042 µM |  |  |  | 11% |
| CC(CN1CC=C(c2c[nH]c3ccc(F)cc23)CC1)c1coc2ccccc12 (centres unmarked) [Compound 37, 3-{1-[2-(1-benzofuran-3-yl)propyl]-1,2,3,6-tetrahydro-4-pyridinyl}-5-fluoro-1H-indole] |  | 0.021 µM | 0.152 µM |  |  |  | 20% |
| COc1cccc2c(CC(C)N3CC=C(c4c[nH]c5ccccc45)CC3)coc12 (centres unmarked) [Compound 41, 3-{1-[2-(7-methoxy-1-benzofuran-3-yl)-1-methylethyl]-1,2,3,6-tetrahydro-4-pyridinyl}-1H-indole] | 0.0115 µM | 0.00893 µM | 0.0688 µM |  |  |  |  |
| COc1cccc2c(CC(C)N3CC=C(c4c[nH]c5cc(F)ccc45)CC3)coc12 (centres unmarked) [Compound 42, 3-{1-[2-(7-methoxy-1-benzofuran-3-yl)-1-methylethyl]-1,2,3,6-tetrahydro-4-pyridinyl}-6-fluoro-1H-indole] | 0.0694 µM | 0.00374 µM | 0.0487 µM |  |  |  |  |
| COc1ccc2occ(CC(C)N3CC=C(c4c[nH]c5ccccc45)CC3)c2c1 (centres unmarked) [Compound 43, 3-{1-[2-(5-methoxy-1-benzofuran-3-yl)-1-methylethyl]-1,2,3,6-tetrahydro-4-pyridinyl}-1H-indole] |  | 0.012 µM | 0.144 µM |  |  |  | 34% |
| Clc1ccc2occ(CCN3CC=C(c4cnc5ccccn45)CC3)c2c1 [Compound 44, 3-{1-[2-(5-chloro-1-benzofuran-3-yl)ethyl]-1,2,3,6-tetrahydropyridin-4-yl}imidazo[1,2-a]pyridine] |  | 0.097 µM | 0.0638 µM |  |  |  | 44% |
